Test results published in patent US20220288046A1, “COMBINATION PRODUCT CONTAINING LIMONOID COMPOUND AND THIAZOLIDINEDIONE COMPOUND” (ZHEJIANG YANGSHENGTANG INSTITUTE OF NATURAL MEDICATION CO., …, priority 2019, published 2022).

Experiments:
Format in all cases: in vivo
STZ mice [1] = experiment: Blood glucose in mouse type II diabetes model with pancreatic islet damage and obesity (STZ + high-fat diet ICR mice), limonoid/pioglitazone; conditions: single agent 0.5 g/kg per day gavage, two weeks, 1 h after last administration, mean ± SD
From the text: Effects of limonoid compound, pioglitazone or combination thereof on blood glucose in mouse type II diabetes model with pancreatic islet damage and obesity In this example, a mouse model of type II diabetes with pancreatic islet damage and obesity was established by multiple modeling ICR mice with a small dose of streptozotocin (STZ), following with continuous high-fat diets (referring to literature: […] Conditions of experimental feeding: […] The experimental feed was mouse growth-stable feed (GB […]), and the daily feeding and management of the animals were under the responsibility of the animal security department, which provided the animals with sufficient diet and fresh drinking water daily. Experimental grouping: 15 male mice were randomly selected as the normal control group, and the remaining mice were subjected to a high-fat diet (high-fat diet formula: cholesterol 1%, egg yolk powder 10%, lard oil 10%, and basic feed 79%, for establishing an obesity mouse model) for consecutive 4 weeks and intraperitoneal injection of STZ at a dose of 35mg/kg for three consecutive days. […] SPSS 16.0 software was used for statistical analysis. The data were expressed as mean and standard deviation. The data before and after were analyzed by t-test, and P <0.05 was considered statistically significant.

db/db mice [2] = experiment: Serum leptin (Elisa) in mouse type II diabetes model (db/db mice), limonoid/pioglitazone; conditions: single agent 0.04 g/kg per day gavage, two weeks, mean ± SD
From the text: (§1) Effects of limonoid compound, pioglitazone or combination thereof on blood glucose and leptin in mouse type II diabetes model In the present example, db/db mice (line name BKS.Cg-Dock7m^+/+Lepr^db/Nju) were used to perform hypoglycemic efficacy evaluation test of animals (blood glucose level and leptin). The limonoid compound was selected from obacunone, isoobacunoic acid and obacunone glycoside, and pioglitazone single administration group, obacunone single administration group, isoobacunoic acid single administration group, obacunone glycoside single administered group, and respective combination thereof with pioglitazone administration groups were set. Conditions for experimental feeding: as type II diabetes model mice, 6-week-old SPF-grade db/db mice were purchased from the Nanjing Model Biology Institute, and subjected to experimental feeding after 7 days of preliminary feeding. […] The experimental feed was mouse growth-stable feed (GB […]), and the daily feeding and management of the animals were under the responsibility of the animal security department, which provided the animals with sufficient diet and fresh drinking water daily. […] The data were expressed as mean and standard deviation. The data before and after were analyzed by t-test, and P <0.05 was considered statistically significant.

db/db mice [3] = experiment: Blood glucose in mouse type II diabetes model (db/db mice), limonoid/pioglitazone; conditions: single agent 0.04 g/kg per day gavage, two weeks, 1 h after last administration, mean ± SD
From the text: as §1

STZ mice [4] = experiment: Blood glucose in mouse pancreatic islet β-cell injury model (STZ ICR mice), limonoid/pioglitazone; conditions: single agent 0.1 g/kg per day gavage, two weeks, 1 h after last administration, mean ± SD
From the text: Effects of limonoid compound, pioglitazone or combination thereof on blood glucose in mouse pancreatic islet β-cell injury model In this example, a mouse pancreatic islet β-cell injury model was established by modeling ICR mice with streptozotocin (STZ) (Li Nan et al., Protective effect of pine pollen on kidney damage in diabetic nephropathy mice, Science and Technology Review, 2014, 32 (4⁄5): 95-99), and used to complete the evaluation of hypoglycemic effect in animals (this model could simulate pancreatic islet β-cell damage state of type I and type II diabetics). The limonoid compound was selected from the group consisting of […], and […] glycoside, and pioglitazone single administration group, […] single administration group, […] single administration group, […] glycoside singe administration group, and respective combination thereof with pioglitazone administration groups were set. Conditions of experimental feeding: […] The experimental feed was mouse growth-stable feed (GB […]), and the daily feeding and management of the animals were under the responsibility of the animal security department, which provided the animals with sufficient diet and fresh drinking water daily. […] The data were expressed as mean and standard deviation. The data before and after were analyzed by t-test, and P <0.05 was considered statistically significant.

db/db mice [5] = experiment: Serum insulin (Elisa) in mouse type II diabetes model (db/db mice), limonoid/rosiglitazone; conditions: single agent 0.2 g/kg per day gavage, two weeks, mean ± SD
From the text: (§2) Effects of limonoid compound, rosiglitazone or combination thereof on blood glucose and insulin in mouse type II diabetes model
(§3) In the present embodiment, the limonoid compound was selected from nomilin, deacetylnomilin, nomilin acid, deacetylnomilin acid glycoside, and rosiglitazone single administration group, nomilin single administration group, deacetylnomilin single administration group, nomilin acid single administered group, deacetylnomilin acid glycoside single administration group, and respective combination thereof with rosiglitazone administration groups were set.
(§4) Conditions for experimental feeding: as type II diabetes model mice, 6-week-old SPF-grade db/db mice were purchased from the Nanjing Model Biology Institute, and subjected to experimental feeding after 7 days of preliminary feeding. […]
(§5) Two weeks later, the blood glucose values were measured by tail trimming method (Johnson's blood glucose meter) 1 h after the last administration, and serum insulin levels were measured with blood collected from orbital cavity by enzyme-linked immunosorbent assay (Elisa), and the average of each group was obtained. […] The data were expressed as mean and standard deviation.

db/db mice [6] = experiment: Blood glucose in mouse type II diabetes model (db/db mice), limonoid/rosiglitazone; conditions: single agent 0.2 g/kg per day gavage, two weeks, 1 h after last administration, mean ± SD
From the text: as §2, §3, §4, §5

STZ mice [7] = experiment: Blood glucose in mouse pancreatic islet β-cell injury model (STZ ICR mice), limonoid/rosiglitazone; conditions: single agent 0.02 g/kg per day gavage, two weeks, 1 h after last administration, mean ± SD
Protocol: It should be noted that the conditions for raising the mice were as follows: the temperature was 23±1° C., the humidity was 55±10%, the lights were turned on between 7 am and 7 pm (the lights were turned off at other time), and the mice were allowed to freely take in water and feed. The experimental feed was mouse growth-stable feed (GB M2118), and the daily feeding and management of the animals were under the responsibility of the animal security department, which provided the animals with sufficient diet and fresh drinking water daily.
SPSS 16.0 software was used for statistical analysis. The data were expressed as mean and standard deviation.

Row | Compound | Blood glucose value (STZ mice [1]) [mmol/L] | Leptin (db/db mice [2]) [pg/mL] | Blood glucose value (db/db mice [3]) [mmol/L] | Blood glucose value (STZ mice [4]) [mmol/L] | Insulin (db/db mice [5]) [pg/mL] | Blood glucose value (db/db mice [6]) [mmol/L] | Blood glucose value (STZ mice [7]) [mmol/L]
1 | CCc1ccc(CCOc2ccc(CC3SC(=O)NC3=O)cc2)nc1 (stereo not shown) [Pioglitazone, pioglitazone] | 9.9 ± 2.1 | 24.55 ± 5.14 | 11.5 ± 3.0 | 12.8 ± 3.1 |  |  | 
2 | CN(CCOc1ccc(CC2SC(=O)NC2=O)cc1)c1ccccn1 (stereo not shown) [Rosiglitazone, rosiglitazone] |  |  |  |  | 7.54 ± 1.21 | 10.0 ± 2.5 | 17.9 ± 3.5
